The numbers were not newly measured in paper PMC5087393, “A Toolbox of Genetically Encoded FRET-Based Biosensors for Rapid L-Lysine Analysis” (Sensors (Basel, Switzerland), 2016), which cites them from elsewhere.

pKd: −log10 of the molar value.

The test system of series [1] is LAO-binding protein of E. coli. As to conditions: read-out: Kd (equilibrium dialysis); without permutation and fluorescent proteins; 10 mM KPi buffer, pH 7.0, 50 mM NaCl. On the technique in general: In equilibrium dialysis only unbound substance equilibrates across the membrane.
Series [2] concerns the target LAO-binding protein from S. typhimurium. Further details: method as in PMID 1400387. The settings on record: 10 mM NaPi buffer, pH 7.0; read-out: Kd (equilibrium dialysis).

A word on the pKd: it is the Kd on a negative log10 scale, so that one unit is a factor of ten. Take `N=C(N)NCCC[C@H](N)C(=O)O` [L-arginine]: the figures for the pKd in series [1] and in series [2] were 5.82 and 7.85, respectively. Turning to `N[C@@H](Cc1c[nH]cn1)C(=O)O` [L-histidine], the pKd in series [2] was 6.30. In the case of `NCCCC[C@H](N)C(=O)O` [L-lysine], the negative logarithm of the Kd (pKd) in series [1] was 5.52; in series [2] it was 7.82.
